The subject of data set [1] is Mycobacterium tuberculosis. The data set can be described thus: Antitubercular activity against Mycobacterium tuberculosis H37Rv. Type of data set: functional.
Data set [2] is described as follows: Clearance in mouse microsomes. Type of data set: ADME, Microsome.
Data set [3] relates to Mycobacteroides abscessus. In words: Antimycobacterial activity against Mycobacterium abscessus smooth variant. Type of data set: functional.
Data set [4] concerns Mycobacteroides abscessus. The data set can be described thus: Antimycobacterial activity against Mycobacterium abscessus rough variant. It is filed as functional.
A short description of data set [5]: Tmax in mouse at 25 mg/kg, po. To be noted: in vivo. Type of data set: ADME, organism-based.
Data set [6] can be described thus: Volume of distribution at steady state in mouse at 25 mg/kg, po. It is filed as ADME, organism-based. To be noted: in vivo.
The nature of data set [7]: Clearance in mouse at 25 mg/kg, po. To be noted: in vivo. Type of data set: ADME, organism-based.
The nature of data set [8]: Elimination half life in mouse at 25 mg/kg, po. It is filed as ADME, organism-based. To be noted: in vivo, read-out: beta t1/2 (converted).
Data set [9] concerns Mycobacterium tuberculosis. In words: Antitubercular activity against replicating Mycobacterium tuberculosis bacilli. Type of data set: functional.
Data set [10] deals with Mycobacterium tuberculosis. The data set can be described thus: Antitubercular activity against non replicating Mycobacterium tuberculosis bacilli by low oxygen recovery assay. Type of data set: functional.
Data set [11] deals with Mycobacteroides abscessus. In words: Antitubercular activity against Mycobacterium abscessus CIP104536. It is filed as functional.
For data set [12], the system named is Mycobacterium tuberculosis. In words: Antitubercular activity against Mycobacterium tuberculosis H37Rv infected in mouse assessed as log reduction in CFU in lung at 100 mg/kg. Type of data set: functional.
The subject of data set [13] is Mycobacterium tuberculosis. In words: Antitubercular activity against Mycobacterium tuberculosis H37Rv infected in mouse assessed as log reduction in CFU in lung at 50 mg/kg. Type of data set: functional.
Data set [14] relates to Mycobacterium tuberculosis. The data set can be described thus: Antitubercular activity against Mycobacterium tuberculosis infected in mouse assessed as log reduction in bacterial burden in lung at 100 mg/kg. Type of data set: functional.
For data set [15], the system named is Mycobacterium tuberculosis. The data set can be described thus: Antitubercular activity against Mycobacterium tuberculosis infected in mouse assessed as log reduction in bacterial burden in lung at 300 mg/kg. It is filed as functional.
Data set [16] deals with Mycobacterium tuberculosis. The data set can be described thus: Antitubercular activity against Mycobacterium tuberculosis […]. It is filed as functional.
In data set [17] the test system is Mycobacterium tuberculosis. In words: Antitubercular activity against Mycobacterium tuberculosis H37Rv infected in mouse macrophage. Type of data set: functional.
For data set [18], the system named is Mycobacterium tuberculosis. The data set can be described thus: Antitubercular activity against replicating Mycobacterium tuberculosis H37Rv. It is filed as functional.
Data set [19] relates to Mycobacterium tuberculosis. In words: Bactericidal activity against replicating Mycobacterium tuberculosis H37Rv. Type of data set: functional.
The subject of data set [20] is Mycobacterium tuberculosis. In words: Antitubercular activity against non-replicating Mycobacterium tuberculosis H37Rv. It is filed as functional.

Converted amounts (≈) assume the structure as drawn.

On to `COc1ccc(-c2cc(CN3CCSCC3)c(C)n2-c2ccc(F)cc2)cc1`, for which 0.2 µM was the least that counted as inhibitory in [1] (MIC). In data set [2], the CLH is 18.76 mL/min/g.

As to `Cc1ccccc1CN1CCC(O)(c2ccc(Cl)c(C(F)(F)F)c2)CC1`, the MIC in [3] and in data set [4] was 0.32 µM (≈ 0.123 µg/mL) each time.

Regarding `c1cc2c(s1)CCOC21CCN(Cc2ccc3c(c2)OCCO3)CC1`, the MIC in [1] was determined as 0.3 µM. In [2], the CLH is greater than 30 mL/min/g.

Regarding `CC1(C)CCC(NC(=O)c2cc3c(F)cc(F)cc3[nH]2)CC1`, the Tmax in [5] amounted to 1.5 h. Moreover, in data set [6], the Vdss is 2.24 L/kg. Further, the CL/F in data set [7] was 18.7 mL/min/kg. Also, in [8], the half-life is 4.47 h.

Take `CC1(C)CCC(NC(=O)c2cc3c(Cl)cc(Cl)cc3[nH]2)CC1`: in [5], the Tmax was determined as 1.5 h. The Vdss in [6] was 4.11 L/kg. The CL/F in data set [7] came out at 18.1 mL/min/kg. Moreover, the half-life in data set [8] is 5.25 h.

In the case of `Cc1c(CN2CCN(C)CC2)cc(-c2ccc(Cl)cc2)n1-c1ccc(Cl)cc1`, the MIC in data set [9] was found to be 5 µM (≈ 2.07 µg/mL); in data set [10], 18.5 µM (≈ 7.67 µg/mL).

For the molecule `Cc1cc2nc(CCC3CCCCC3)[nH]c2cc1C`, the MIC came to 0.75 µg/mL in [1] and 0.125 µg/mL (≈ 0.488 µM) in data set [11].

In [1], `CCCn1cnc2cc(NCc3ccc(Cl)cc3Cl)ccc21` gave an IC90 of 16 µM.

`Cc1c(CN2CCOCC2)cc(-c2ccc(C(C)C)cc2)n1-c1ccc(F)cc1` yielded an MIC in [1] of 0.12 µM. For the same molecule, the CLH in data set [2] turned out to be 1.4 mL/min/g.

For `FC(F)(F)Oc1ccc(Oc2ccc(CN3CCC4(CC3)OCCc3sccc34)cc2)cc1`, the MIC in data set [1] amounted to 0.06 µM. Moreover, in data set [2], the CLH is 1.2 mL/min/g. Also, the “log(activity)” value in data set [12] is 2.7; in data set [13], 2.3.

As for `CCc1ccc([C@H]2C[C@@H](C(F)(F)F)n3ncc(C(=O)NCc4ccc5c(c4)OCO5)c3N2)cc1`, in data set [1], the MIC was found to be 0.16 µM. The “log(activity)” value was 1.5 in [14] and 2.2 in data set [15].

On to `O=C(NCCc1ccc(Cl)cc1)C1(c2cccs2)CCCCC1`, for which the MIC99 in data set [16] was determined as 19.3 µM (≈ 6.71 µg/mL). That is a double-digit micromolar value.

Regarding `CCc1ccc([C@H]2C[C@@H](C(F)(F)F)n3ncc(C(=O)NCc4ccc(OC)cc4)c3N2)cc1`, it took 0.3 µM to inhibit growth in data set [1] (MIC). The molecule also displayed an MIC80 in data set [17] of 0.16 µM (≈ 0.0734 µg/mL).

In the case of `FC(F)(F)Oc1ccc(Oc2ccc(CNCCNC3C4CC5CC(C4)CC3C5)cc2)cc1` (stereo not given), the MIC99 in [18] amounted to 2.5 µM (≈ 1.15 µg/mL). For the same molecule, the MBC99 in data set [19] came out at 5 µM (≈ 2.3 µg/mL).

As for `CC(C)=CCC/C(C)=C\CNCCNC1C2CC3CC(C2)CC1C3` (stereo not given), the MIC in data set [18] and in data set [20] was 0.7 µM (≈ 0.231 µg/mL) in each case.

The record behind these values is ChEMBL document CHEMBL5244240, “MmpL3 inhibitors as antituberculosis drugs” (Eur J Med Chem, 2020).
